For assay [1], the system named is Pool 1 Gram negative non-fermenting bacteria: Pseudomonas aeruginosa, Pseudomonas putida & Burkholderia cepacia. Briefly: Liquid broth checkerboard assay (MIC, ΣFIC synergy), microorganism Pool 1. It counts as cell-based. Conditions: tryptic soy broth, 30° C., 24 hours, ΣFIC<1 synergistic. The source says:
(§1) The differing behaviours of inhibitory antimicrobials in isolation and mixtures have been widely explored using the concept of the Fractional Concentration and Fractional Inhibitory Concentration (FIC). See for instance J R W Lambert and R Lambert, J. Appl. Microbiol 95, 734 (2003); T. Jadavji, C G Prober and R Cheung, Antimicrobial Agents and Chemotherapy 26, 91 (1984), and WO 2004/006876. These parameters can be defined as follows: FC(component a)=Concentration of component a tested in the mixture/MIC(component a tested as a single active) FIC(component a)=MIC(component a tested in the mixture)/MIC(component a tested as a single active)
(§2) These relationships can be expressed mathematically by summing the fractional MIC values for all the components present in the mixture to give the “fractional inhibitory index”: ΣFIC=FIC(component 1)+FIC(component 2)
(§3) ΣFIC≥1 corresponds to additive or antagonistic activity
(§4) ΣFIC<1 corresponds to synergistic activity
(§5) Liquid broth assays (MIC and checkerboard) were conducted to identify the minimum concentration(s) of individual and binary combinations of preservation chemicals. A modified methodology to ISO 20776-1:2006 was utilised for the screening as follows. Stock solutions of preservation chemicals and tryptic soy broth were inoculated with 1-5×10^6 microorganisms and incubated at 30° C. for 24 hours, after which optical densities at OD600 nm were measured. […] Preservation chemicals were screened at a concentration range of 0.0156-2%.

In assay [2] the test system is Pool 2 Gram negative fermenting bacteria: Enterobacter gergoviae & Klebsiella species. In words: Liquid broth checkerboard assay (MIC, ΣFIC synergy), microorganism Pool 2. It counts as cell-based. The following applies: tryptic soy broth, 30° C., 24 hours, ΣFIC<1 synergistic.
Excerpt: as §1, §2, §3, §4, §5

[3] abbreviates: binary combination with Citric Acid.
[4] abbreviates: binary combination with Itaconic acid.

On to `CC(C)=CCC/C(C)=C/CO` [Geraniol], for which the ΣFIC synergy score is 0.75 in assay [1] (setting [3]), 0.31 in assay [1] (setting [4]), 1.06 in assay [2] (setting [3]) and 0.5 in assay [2] (setting [4]).

In the case of `C=C(C)[C@@H]1CC=C(CO)CC1` [Perillyl alcohol], the ΣFIC synergy score in assay [1] (setting [3]) was determined as 0.38; in assay [1] (setting [4]) it was 0.38; in assay [2] (setting [3]) it was 0.5; in assay [2] (setting [4]) it was 0.38.

The values above are taken from US11490618B2, “Preservation compositions” (Conopco, Inc., priority 2018, dated 2022).
